Results: ChEMBL document CHEMBL4033698, “One-pot synthesis and biological evaluation of N-(aminosulfonyl)-4-podophyllotoxin carbamates as potential anticancer agents” (Bioorg Med Chem Lett, 2017)
Activity calls are given as the source filed them. No cut-off for these calls is given here.

Columns and labels:
HeLa [1] = assay: Cytotoxicity against human HeLa cells after 48 hrs by MTT assay; format: functional, cell-based
A549 = assay: Cytotoxicity against human A549 cells after 48 hrs by MTT assay; format: functional, cell-based; conditions: A549, 48 h
HCT-8 = assay: Cytotoxicity against human HCT8 cells after 48 hrs by MTT assay; format: functional, cell-based; conditions: HCT-8, 48 h
HepG2 = assay: Cytotoxicity against human HepG2 cells after 48 hrs by MTT assay; format: functional, cell-based; conditions: HepG2, 48 h
WI-38 = assay: Cytotoxicity against human WI38 cells after 48 hrs by MTT assay; format: cell-based; conditions: WI-38, 48 h
HeLa [2] = assay: Induction of microtubule disruption in human HeLa cells assessed as round microtubule at 1 uM after 6 hrs by DAPI staining based immunofluorescence microscopic analysis; format: cell-based
HeLa [3] = assay: Induction of microtubule disruption in human HeLa cells assessed as short microtubule at 1 uM after 6 hrs by DAPI staining based immunofluorescence microscopic analysis; format: cell-based
HeLa [4] = assay: Induction of microtubule disruption in human HeLa cells assessed as dense microtubule at 1 uM after 6 hrs by DAPI staining based immunofluorescence microscopic analysis; format: cell-based
HeLa [5] = assay: Inhibition of tubulin polymerization in human HeLa cells assessed as reduction in polymerized tubulin expression at 2 uM after 24 hrs by chemiluminescence assay; format: cell-based
HeLa [6] = assay: Induction of apoptosis in human HeLa cells assessed as morphological changes at 0.1 to 1 uM after 24 hrs by Hoechst 33258 staining based fluorescence microscopic analysis; format: functional, cell-based
HeLa [7] = assay: Induction of apoptosis in human HeLa cells assessed as nuclear fragmentation at 0.1 to 1 uM after 24 hrs by Hoechst 33258 staining based fluorescence microscopic analysis; format: functional, cell-based
HeLa [8] = assay: Induction of apoptosis in human HeLa cells assessed as upregulation of p53 expression by Western blot analysis; format: functional, cell-based
HeLa [9] = assay: Induction of apoptosis in human HeLa cells assessed as increase in intracellular reactive oxygen species level after 24 hrs by DCFH-DA staining based laser confocal microscopic analysis; format: functional, cell-based
HeLa [10] = assay: Inhibition of tubulin polymerization in human HeLa cells assessed as reduction in polymerized tubulin expression at 0.5 uM after 24 hrs by chemiluminescence assay; format: cell-based
HeLa [11] = assay: Induction of microtubule disruption in human HeLa cells assessed as round microtubule after 6 hrs by DAPI staining based immunofluorescence microscopic analysis; format: cell-based
HeLa [12] = assay: Induction of microtubule disruption in human HeLa cells assessed as short microtubule after 6 hrs by DAPI staining based immunofluorescence microscopic analysis; format: cell-based
HeLa [13] = assay: Induction of microtubule disruption in human HeLa cells assessed as dense microtubule after 6 hrs by DAPI staining based immunofluorescence microscopic analysis; format: cell-based
HeLa [14] = assay: Induction of microtubule disruption in human HeLa cells assessed as cell shrinkage after 6 hrs by DAPI staining based immunofluorescence microscopic analysis
HeLa [15] = assay: Induction of microtubule disruption in human HeLa cells assessed as nuclear fragmentation after 6 hrs by DAPI staining based immunofluorescence microscopic analysis; format: cell-based
HeLa [16] = assay: Induction of microtubule disruption in human HeLa cells assessed as nuclear condensation after 6 hrs by DAPI staining based immunofluorescence microscopic analysis; format: cell-based
HeLa [17] = assay: Cell cycel arrest in human HeLa cells assessed as increase in accumulation at G2/M phase after 24 hrs by propidium iodide staining based assay; format: functional
HeLa [18] = assay: Cell cycel arrest in human HeLa cells assessed as decrease in accumulation at G1 phase after 24 hrs by propidium iodide staining based assay; format: functional
HeLa [19] = assay: Upregulation of cyclin B1 expression in human HeLa cells after 24 hrs by Western blot analysis; format: functional, cell-based
HeLa [20] = assay: Upregulation of CDC2 expression in human HeLa cells after 24 hrs by Western blot analysis; format: functional, cell-based
[21] = target: Cyclin-dependent kinase 1 (Homo sapiens) (UniProt P06493); assay: Reduction in phosphorylated CDC2 level in human HeLa cells after 24 hrs by Western blot analysis; format: cell-based
Cyclin-dependent kinase 1 (Homo sapiens), sequence (P06493 whole entry, looked up): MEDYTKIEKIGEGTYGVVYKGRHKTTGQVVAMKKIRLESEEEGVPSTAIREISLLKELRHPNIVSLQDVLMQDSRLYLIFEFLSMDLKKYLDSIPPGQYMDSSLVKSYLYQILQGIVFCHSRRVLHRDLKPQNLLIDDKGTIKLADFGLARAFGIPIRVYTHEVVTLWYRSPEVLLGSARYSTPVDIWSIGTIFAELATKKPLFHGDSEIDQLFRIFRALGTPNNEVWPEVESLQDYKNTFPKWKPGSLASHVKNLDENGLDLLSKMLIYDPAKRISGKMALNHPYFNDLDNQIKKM

SMILES	IC50 (HeLa [1]) [µM]	IC50 (A549) [µM]	IC50 (HCT-8) [µM]	IC50 (HepG2) [µM]	IC50 (WI-38) [µM]	other results
CCCNS(=O)(=O)NC(=O)O[C@H]1c2cc3c(cc2[C@@H](c2cc(OC)c(OC)c(OC)c2)[C@H]2C(=O)OC[C@@H]21)OCO3	1.9	9	23.2	2.8	63.3	–
COc1cc2c(c(OC)c1OC)-c1ccc(OC)c(=O)cc1[C@@H](NC(C)=O)CC2	–	–	–	–	–	Activity (HeLa [2]): Active; Activity (HeLa [3]): Active; Activity (HeLa [4]): Active
COc1cc([C@@H]2c3cc4c(cc3[C@H](OC(=O)NS(=O)(=O)NC3CCN(C)CC3)[C@H]3COC(=O)[C@H]23)OCO4)cc(OC)c1OC	4.1	3.3	96	15.6	68.7	–
CC(=O)O[C@H]1C(=O)[C@@]2(C)[C@H]([C@H](OC(=O)c3ccccc3)[C@]3(O)C[C@H](OC(=O)[C@H](O)[C@@H](NC(=O)c4ccccc4)c4ccccc4)C(C)=C1C3(C)C)[C@]1(OC(C)=O)CO[C@@H]1C[C@@H]2O	–	–	–	–	–	inhibition (HeLa [5]): inactive
COc1cc([C@@H]2c3cc4c(cc3[C@H](OC(=O)NS(=O)(=O)N3CCN(C)CC3)[C@H]3COC(=O)[C@H]23)OCO4)cc(OC)c1OC	0.4	5.9	> 100	1.5	86.5	–
COc1cc([C@@H]2c3cc4c(cc3[C@H](OC(=O)NS(=O)(=O)N3CCOCC3)[C@H]3COC(=O)[C@H]23)OCO4)cc(OC)c1OC	0.5	1.5	16.5	0.7	109	Activity (HeLa [6]): Active; Activity (HeLa [7]): Active; Activity (HeLa [8]): Dose-dependent effect; Activity (HeLa [9]): Dose-dependent effect; inhibition (HeLa [10]): Active; inhibition (HeLa [5]): Active; Activity (HeLa [11]): Dose-dependent effect; Activity (HeLa [12]): Dose-dependent effect; Activity (HeLa [13]): Dose-dependent effect; Activity (HeLa [14]): Dose-dependent effect; Activity (HeLa [15]): Dose-dependent effect; Activity (HeLa [16]): Dose-dependent effect; Activity (HeLa [17]): Dose-dependent effect; Activity (HeLa [18]): Dose-dependent effect; Activity (HeLa [19]): Dose-dependent effect; Activity (HeLa [20]): Dose-dependent effect; Activity [21]: Dose-dependent effect
COc1cc([C@@H]2c3cc4c(cc3[C@H](OC(=O)NS(=O)(=O)NC3CC3)[C@H]3COC(=O)[C@H]23)OCO4)cc(OC)c1OC	3.9	4.3	45	8.8	65.3	–
COc1cc([C@@H]2c3cc4c(cc3[C@@H](O[C@@H]3O[C@@H]5CO[C@@H](C)O[C@H]5[C@H](O)[C@H]3O)[C@H]3COC(=O)[C@H]23)OCO4)cc(OC)c1O [ETOPOSIDE]	24.9	–	26.3	13.4	46.9	–
COc1cc([C@@H]2c3cc4c(cc3[C@H](OC(=O)NS(=O)(=O)NC3CCCCC3)[C@H]3COC(=O)[C@H]23)OCO4)cc(OC)c1OC	4.6	2.6	20.1	3.7	78.5	–
COc1cc([C@@H]2c3cc4c(cc3[C@H](OC(=O)NS(=O)(=O)N3CCN(C5CCCC5)CC3)[C@H]3COC(=O)[C@H]23)OCO4)cc(OC)c1OC	57.6	9.8	–	–	47.9	–
COc1cc([C@@H]2c3cc4c(cc3[C@H](OC(=O)NS(=O)(=O)N3CCN(c5ccc(F)cc5)CC3)[C@H]3COC(=O)[C@H]23)OCO4)cc(OC)c1OC	7.6	12.2	–	–	44.3	–
COc1cc([C@@H]2c3cc4c(cc3[C@H](OC(=O)NS(=O)(=O)N3CCN(c5ccc([N+](=O)[O-])cc5)CC3)[C@H]3COC(=O)[C@H]23)OCO4)cc(OC)c1OC	35.6	13.7	> 100	6	77.2	–
